# Assay results: patent US20220232834A1, “PSEUDOMONAS CHLORORAPHIS SPECIES AND ITS USE IN THE CONTROL OF DISEASES CAUSED BY BACTERIA AND FUNGI” (T3 BIOSCIENCE, LLC, priority 2021, published 2022)
# Where two headings read alike, the source gives them in different places. Marks after values point to notes of the source that are not given here.
# Tests used:
# [1] = tested on: Erwinia amylovora 1189; experiment: microbe, parasite or virus in culture; assay type: cell-based; conditions: Erwinia amylovora, 1189, read-out: Diameter of Growth Inhibition Zone
# [2] = tested on: Erwinia amylovora 110; experiment: microbe, parasite or virus in culture; assay type: cell-based; conditions: Erwinia amylovora, 110, read-out: Diameter of Growth Inhibition Zone
# [3] = tested on: Erwinia amylovora DM1; experiment: microbe, parasite or virus in culture; assay type: cell-based; conditions: DM1, read-out: Diameter of Growth Inhibition Zone
# [4] = tested on: Erwinia amylovora CA11; experiment: microbe, parasite or virus in culture; assay type: cell-based; conditions: CA11, read-out: Diameter of Growth Inhibition Zone
# [5] = tested on: Erwinia amylovora 88; experiment: microbe, parasite or virus in culture; assay type: cell-based; conditions: Erwinia amylovora, 88, read-out: Diameter of Growth Inhibition Zone
# [6] = tested on: Pectobacterium parmentieri UPP163 936; experiment: microbe, parasite or virus in culture; assay type: cell-based; conditions: UPP163936, read-out: Diameter of Growth Inhibition Zone
# [7] = tested on: Pectobacterium atrosepticum 942; experiment: microbe, parasite or virus in culture; assay type: cell-based; conditions: Pectobacterium atrosepticum, 942, read-out: Diameter of Growth Inhibition Zone
# [8] = tested on: Pectobacterium carotovorum subsp brasillensis 944; experiment: microbe, parasite or virus in culture; assay type: cell-based; conditions: read-out: Diameter of Growth Inhibition Zone
# [9] = tested on: Pectobacterium carotovorum subsp. carotovorum wpp14 945; experiment: microbe, parasite or virus in culture; assay type: cell-based; conditions: read-out: Diameter of Growth Inhibition Zone
# [10] = tested on: Dickeya dadantii 3937; experiment: microbe, parasite or virus in culture; assay type: cell-based; conditions: Dickeya dadantii, 3937, read-out: Diameter of Growth Inhibition Zone
# [11] = tested on: Pseudomonas savastanoi pv. savastanoi; experiment: microbe, parasite or virus in culture; assay type: cell-based; conditions: read-out: Diameter of Growth Inhibition Zone
# [12] = tested on: Pseudomonas syringae. pv syringae 7046; experiment: microbe, parasite or virus in culture; assay type: cell-based; conditions: read-out: Diameter of Growth Inhibition Zone
# [13] = tested on: Pseudomonas syringae. pv. lachrymans 1188-1; experiment: microbe, parasite or virus in culture; assay type: cell-based; conditions: read-out: Diameter of Growth Inhibition Zone
# [14] = tested on: Pseudomonas syringae. pv. tomato PT30; experiment: microbe, parasite or virus in culture; assay type: cell-based; conditions: read-out: Diameter of Growth Inhibition Zone
# [15] = tested on: Ralstonia solanacearum K60; experiment: microbe, parasite or virus in culture; assay type: cell-based; conditions: K60, read-out: Diameter of Growth Inhibition Zone
# [16] = tested on: Ralstonia solanacearum Pss4; experiment: microbe, parasite or virus in culture; assay type: cell-based; conditions: PSS4, read-out: Diameter of Growth Inhibition Zone
# [17] = tested on: Xanthomonas axonopodis pv. citri N40-SO5; experiment: plate diffusion assay; assay type: cell-based; conditions: read-out: Diameter of Growth Inhibition Zone
# [18] = tested on: Xanthomonas axonopodis pv. citri-Miami XC2002-00010; experiment: plate diffusion assay; assay type: cell-based; conditions: read-out: Diameter of Growth Inhibition Zone
# [19] = tested on: Xanthomonas campestris pv. pruni; experiment: microbe, parasite or virus in culture; assay type: cell-based; conditions: read-out: Diameter of Growth Inhibition Zone
# [20] = tested on: Xanthomonas campestris pv. vesicatoria XV-16; experiment: microbe, parasite or virus in culture; assay type: cell-based; conditions: read-out: Diameter of Growth Inhibition Zone
# [21] = tested on: Xanthomonas arboricola pv. juglandis 219; experiment: microbe, parasite or virus in culture; assay type: cell-based; conditions: read-out: Diameter of Growth Inhibition Zone
# [22] = tested on: Xanthomonas arboricola pv. juglandis 417; experiment: microbe, parasite or virus in culture; assay type: cell-based; conditions: read-out: Diameter of Growth Inhibition Zone
# [23] = tested on: Ralstonia solanacearum K60; experiment: microbe, parasite or virus in culture; assay type: cell-based
# [24] = tested on: Pseudomonas syringae. pv. tomato PT30; experiment: microbe, parasite or virus in culture; assay type: cell-based
# [25] = tested on: Xanthomonas euvesicatoria 75-3; experiment: microbe, parasite or virus in culture; assay type: cell-based; conditions: 753
# [26] = tested on: Clavibacter michiganensis subsp. michiganensis 382; experiment: MIC value study of 1214-CHY4 metabolites; assay type: cell-based
# [27] = tested on: Venturia inaequalis VI19-032; experiment: microbe, parasite or virus in culture; assay type: cell-based; conditions: VI19032
# [28] = tested on: Phytophthora infestans 88069; experiment: microbe, parasite or virus in culture; assay type: cell-based
# [29] = tested on: Botrytis cinerea CA17; experiment: microbe, parasite or virus in culture; assay type: cell-based
# [30] = tested on: Botrytis cinerea; conditions: cited from earlier work
# [31] = tested on: Phytophthora infestans; conditions: cited from earlier work
# [32] = tested on: Seiridium cardinale; conditions: Ref 4; producer P. chlororaphis subsp. aureofaciens M71; cited from earlier work
# [33] = tested on: Vibrio anguillarum C312; conditions: Ref 5; producer P. aeruginosa PA31x; cited from earlier work
# [34] = tested on: Gaeumannomyces graminis var. tritici.; conditions: Ref 6; producer P. fluorescens 2-79; cited from earlier work
# [35] = tested on: Fusarium oxysporum; conditions: cited from earlier work
# [36] = tested on: Alternaria alternata, Phytophthora sp., Fusarium solani, F. oxysporum; conditions: Ref 12; producer P. chlororaphis MCC2693; cited from earlier work
# [37] = tested on: 22 bacteria and fungi, including Gram-positive bacteria mycobacteria; conditions: Ref 3-4; producer Pseudomonas sp. B-9004; cited from earlier work
# [38] = tested on: Staphylococcus aureus; conditions: Ref 3-4; producer Pseudomonas sp. B-9004; cited from earlier work
# [39] = tested on: Aspergillus fumigatus; conditions: Ref 1; producer Pseudomonas sp. Ki19; cited from earlier work
# [40] = tested on: Candida albicans; conditions: Ref 1; producer Pseudomonas sp. Ki19; cited from earlier work
# [41] = tested on: Drechslera sorokiniana; conditions: Ref 1; producer Pseudomonas sp. Ki19; cited from earlier work
# [42] = tested on: Fusarium culmorum; conditions: Ref 1; producer Pseudomonas sp. Ki19; cited from earlier work
# [43] = tested on: Pseudomonas sevastanoi; conditions: Ref 1; producer Pseudomonas sp. Ki19; cited from earlier work
# [44] = tested on: Staphyllococcus aureus; conditions: Ref 1; producer Pseudomonas sp. Ki19; cited from earlier work
# [45] = Ref 5, producer Pseudomonas sp. DC165, cited from earlier work
# [46] = tested on: Staphylococcus aureus ATCC 12600; conditions: Ref 6; producer Pseudomonas aurantiaca; cited from earlier work
# [47] = tested on: Staphylococcus epidermidis ATCC 14990; conditions: Ref 6; producer Pseudomonas aurantiaca; cited from earlier work
# [48] = tested on: Enterococcus hirae ATCC 8043; conditions: Ref 6; producer Pseudomonas aurantiaca; cited from earlier work
# [49] = tested on: Streptococcus mutans ATCC 25175; conditions: Ref 6; producer Pseudomonas aurantiaca; cited from earlier work
# [50] = tested on: Bacillus subtilis subsp. spizizenii ATCC 6633; conditions: Ref 6; producer Pseudomonas aurantiaca; cited from earlier work
# [51] = tested on: Clavibacter michiganensis subsp. michiganensis Cmm 0317; experiment: plate diffusion assay; assay type: cell-based; conditions: 200 μg/mL, read-out: Diameter of Growth Inhibition Zone
# [52] = tested on: Clavibacter michiganensis subsp. michiganensis Cmm 0690; experiment: plate diffusion assay; assay type: cell-based; conditions: 200 μg/mL, read-out: Diameter of Growth Inhibition Zone
# [53] = tested on: Clavibacter michiganensis subsp. michiganensis NCPPB382; experiment: plate diffusion assay; assay type: cell-based; conditions: 200 μg/mL, read-out: Diameter of Growth Inhibition Zone
structure (smiles),measurement,setting,value
[H]/N=C(/N)N[C@H]1[C@H](O)[C@@H](O)[C@H](O[C@@H]2O[C@@H](C)[C@](O)(C=O)[C@H]2O[C@@H]2O[C@@H](CO)[C@H](O)[C@@H](O)[C@@H]2NC)[C@@H](N/C(N)=N\[H])[C@@H]1O [Streptomycin],zone of inhibition at 200 µg/mL,[1],5 mm
same,zone of inhibition at 200 µg/mL,[2],5 mm
same,zone of inhibition at 200 µg/mL,[3],0 mm
same,zone of inhibition at 200 µg/mL,[4],0 mm
same,zone of inhibition at 200 µg/mL,[5],0 mm
same,zone of inhibition at 200 µg/mL,[6],5 mm
same,zone of inhibition at 200 µg/mL,[7],0 mm
same,zone of inhibition at 200 µg/mL,[8],0 mm
same,zone of inhibition at 200 µg/mL,[9],0 mm
same,zone of inhibition at 200 µg/mL,[10],5 mm
same,zone of inhibition at 200 µg/mL,[11],6 mm
same,zone of inhibition at 200 µg/mL,[12],5 mm
same,zone of inhibition at 200 µg/mL,[13],6 mm
same,zone of inhibition at 200 µg/mL,[14],6 mm
same,zone of inhibition at 200 µg/mL,[15],3 mm
same,zone of inhibition at 200 µg/mL,[16],3 mm
same,zone of inhibition at 200 µg/mL,[17],22 mm
same,zone of inhibition at 200 µg/mL,[18],21 mm
same,zone of inhibition at 200 µg/mL,[19],0 mm
same,zone of inhibition at 200 µg/mL,[20],10 mm
same,zone of inhibition at 200 µg/mL,[21],0 mm
same,zone of inhibition at 200 µg/mL,[22],10 mm
same,MIC,"[23]; Ralstonia solanacearum, K60",25 µg/mL
same,MIC,[24],3.13 µg/mL
same,MIC,[25],50 µg/mL
same,MIC,[26]; Clavibacter michiganensis,12.5 µg/mL
"O=C(O)c1cccc2nc3ccccc3nc12 (single isomer, unassigned) [Peak 4, phenazine-1-carboxylic acid]",MIC,[27],31.3 µg/mL
same,MIC,[28],1.56 µg/mL
same,MIC,[29],62.5 µg/mL
same,MIC,"[23]; Ralstonia solanacearum, K60",6.25 µg/mL
same,MIC,[23]; agar dilution method,6.25^b μg/mL
same,MIC,[24],100 µg/mL
same,MIC,[25],100 µg/mL
same,MIC,[26]; Clavibacter michiganensis,100 µg/mL
same,Active Against,"[30]; Ref 1, producer P. aeruginosa LV Strain",Botrytis cinerea
same,reported to be effective against,"[30]; Upadhyay and Srivastava, 2011",effective
same,Active Against,"[31]; Ref 2, producer P. fluorescens LBUM636",Phytophthora infestans
same,Active Against,"[31]; Ref 3, producer P. fluorescens LBUM223",Phytophthora infestans
same,Active Against,[32],Seiridium cardinale
same,Active Against,[33],Vibrio anguillarum C312
same,Active Against,[34],Gaeumannomyces graminis var. tritici.
same,Active Against,"[35]; Ref 7, producer P. fluorescens strain Psd",Fusarium oxysporum
same,reported to be effective against,"[35]; Upadhyay and Srivastava, 2011",effective
same,Active Against (order),[36],Alternaria alternata > Phytophthora sp. >
CCCCCCc1c(O)cc(CCC)cc1O [DB2073],Activity,[37],"Active against 22 bacteria and fungi,"
same,Activity (MIC values),[38],(25 μg/mL)
"CCCCCCc1c(O)cc(CCCCC)cc1O (single isomer, unassigned) [Peak 2, 2-hexyl-5-pentylbenzene-1,3-diol]",MIC,[27],> 100 µg/mL
same,MIC,[28],> 100 µg/mL
same,MIC,[29],> 100 µg/mL
same,MIC,"[23]; Ralstonia solanacearum, K60",> 25000 µg/mL
same,MIC,[24],312 µg/mL
same,MIC,[25],78 µg/mL
same,MIC,[26],1.56^c μg/mL
same,MIC,[26]; Clavibacter michiganensis,1.56 µg/mL
same,Activity (MIC values),[39],Aspergillus fumigatus (50 μg/mL)
same,Activity (MIC values),[40],Candida albicans (50 μg/mL)
same,Activity (MIC values),[41],Drechslera sorokiniana (50 μg/mL)
same,Activity (MIC values),[42],Fusarium culmorum (50 μg/mL)
same,Activity (MIC values),[43],Pseudomonas sevastanoi (50 μg/mL)
same,Activity (MIC values),[44],Staphyllococcus aureus (7 μg/mL)
same,Activity: free radical scavenging,[45],Free radical scavenging substances
same,Activity: free radical scavenging,[45]; listed as Resorstatin,free radical scavenging substance
same,Activity (MIC values),[46],ATCC 12600 (2.1 μg/mL)
same,Activity (MIC values),[47],ATCC 14990 (4.2 μg/mL)
same,Activity (MIC values),[48],ATCC 8043 (4.2 μg/mL)
same,Activity (MIC values),[49],ATCC 25175(4.2 μg/mL)
same,Activity (MIC values),[50],ATCC 6633(4.2 μg/mL)
"CN[C@H](CC(C)C)C(=O)N[C@H]1C(=O)N[C@@H](CC(N)=O)C(=O)N[C@H]2C(=O)N[C@H]3C(=O)N[C@H](C(=O)N[C@H](C(=O)O)c4cc(O)cc(O)c4-c4cc3ccc4O)[C@H](O)c3ccc(c(Cl)c3)Oc3cc2cc(c3O[C@@H]2O[C@H](CO)[C@@H](O)[C@H](O)[C@H]2O[C@H]2C[C@](C)(N)[C@H](O)[C@H](C)O2)Oc2ccc(cc2Cl)[C@H]1O [Vancomycin, reference compound]",zone of inhibition at 200 µg/mL,[51],11 mm
same,zone of inhibition at 200 µg/mL,[52],12 mm
same,zone of inhibition at 200 µg/mL,[53],13 mm
same,MIC,"[23]; Ralstonia solanacearum, K60",100 µg/mL
same,MIC,[24],100 µg/mL
same,MIC,[25],50 µg/mL
same,MIC,[26]; Clavibacter michiganensis,0.39 µg/mL
"CCCCCCCc1cc(O)c(CCCCCC)c(O)c1 (single isomer, unassigned) [Peak 3, 2-hexyl-5-heptylbenzene-1,3-diol]",MIC,[27],> 100 µg/mL
same,MIC,[28],> 100 µg/mL
same,MIC,[29],> 100 µg/mL
same,MIC,"[23]; Ralstonia solanacearum, K60",> 25000 µg/mL
same,MIC,[24],156 µg/mL
same,MIC,[25],78 µg/mL
same,MIC,[26]; Clavibacter michiganensis,0.78 µg/mL
same,MIC,[26]; modified broth dilution (microdilution) method,0.78^c μg/mL
same,Activity (MIC values),[46],ATCC 12600 (4.2 μg/mL)
same,Activity (MIC values),[47],ATCC 14990 (4.2 μg/mL)
same,Activity (MIC values),[48],ATCC 8043 (8.4 μg/mL)
same,Activity (MIC values),[49],ATCC 25175(8.4 μg/mL)
same,Activity (MIC values),[50],ATCC 6633(33.4 μg/mL)
